Experimental data published in patent US20210038607A1, “OXADIAZOLYLTHIOPHENE DERIVATIVES USEFUL AS HISTONE DEACETYLASE INHIBITORS” (Karus Therapeutics Limited, priority 2018, published 2021).

What was measured:
Human HDAC5 = biological target: T1, Human HDAC5 (Homo sapiens, UniProt Q9UQL6); assay: HDAC5 biochemical assay, class IIa-specific substrate; conditions: read-out: HDAC Isoform IC50 (nM) 5
T1 construct: full length with C-terminal His tag, MW=51.1 kDa; His (C); host or cells: baculovirus expression system
T1 sequence (Q9UQL6 656-1122 limits assumed): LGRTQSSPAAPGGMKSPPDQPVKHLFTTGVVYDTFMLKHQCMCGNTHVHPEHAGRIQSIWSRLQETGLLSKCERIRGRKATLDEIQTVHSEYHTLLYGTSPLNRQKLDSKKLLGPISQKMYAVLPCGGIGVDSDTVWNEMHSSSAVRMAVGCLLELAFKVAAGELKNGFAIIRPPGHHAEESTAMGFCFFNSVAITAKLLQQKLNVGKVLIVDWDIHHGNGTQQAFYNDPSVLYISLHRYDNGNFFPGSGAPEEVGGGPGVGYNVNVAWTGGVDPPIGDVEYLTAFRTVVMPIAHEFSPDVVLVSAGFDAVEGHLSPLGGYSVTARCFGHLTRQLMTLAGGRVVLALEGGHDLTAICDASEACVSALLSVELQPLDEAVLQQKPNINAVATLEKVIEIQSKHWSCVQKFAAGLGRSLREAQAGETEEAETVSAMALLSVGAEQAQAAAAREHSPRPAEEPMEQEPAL
Method: (§1) Activity against all zinc-dependent HDACs 1 to 11 was assessed by using an acetylated AMC-labeled peptide substrate. The substrate RHKK(Ac)AMC was used for HDAC1, HDAC2, HDAC3, HDAC6 and HDAC10; the substrate used for HDAC8 was RHK(Ac)K(Ac)AMC. Activity against the class IIa HDACs (HDAC4, 5, 7, 9) and HDAC11 was determined using a class IIa-specific substrate, BOC-Lys(trifluoroacetyl)-AMC (“Trifluoroacetyl Lysine”; see Lahm et al, 2007, PNAS, 104, 17335-17340). All assays were based on the AMC-labeled substrate and developer combination.
(§2) The protocol involved a two-step reaction: first, the substrate with the acetylated lysine side chain is incubated with a sample containing HDAC activity, to produce the deacetylated products, which are then digested in the second step by the addition of developer to produce the fluorescent signal proportional to the amount of deacetylated substrates.
Human HDAC5 (GenBank Accession No. NM_005474), full length with C-terminal His tag, MW=51.1 kDa, expressed in baculovirus expression system.
(§3) Assay Buffer: 50 mM Tris-HCl, pH8.0, 137 mM NaCl, 2.7 mM KCl, 1 mM MgC2. Before use, 1 mg/mL BSA and DMSO are added.
(§4) For class IIa HDACs, assay buffer is the same.
HDAC5: 0.05 ng/ul HDAC5 and 50 μM Class IIa HDAC substrate are in the reaction buffer with 1% DMSO final. Incubate for 30 minutes at room temperature.
(§5) Stage 1: Deacetylation of substrate by incubation of HDAC enzymes with compounds
(§6) Stage 2: Development by addition of Developer to digest the deacetylated substrate, and generate the fluorescent colour; Detection: 360/460 Ex/Em

Human HDAC4 = biological target: T2, Human HDAC4 (Homo sapiens, UniProt P56524); assay: HDAC4 biochemical assay, class IIa-specific substrate; conditions: read-out: HDAC Isoform IC50 (nM) 4
T2 construct: amino acids 627-1085 with N-terminal GST tag; GST (N); host or cells: baculovirus expression system
T2 sequence (P56524 627-1084 limits assumed): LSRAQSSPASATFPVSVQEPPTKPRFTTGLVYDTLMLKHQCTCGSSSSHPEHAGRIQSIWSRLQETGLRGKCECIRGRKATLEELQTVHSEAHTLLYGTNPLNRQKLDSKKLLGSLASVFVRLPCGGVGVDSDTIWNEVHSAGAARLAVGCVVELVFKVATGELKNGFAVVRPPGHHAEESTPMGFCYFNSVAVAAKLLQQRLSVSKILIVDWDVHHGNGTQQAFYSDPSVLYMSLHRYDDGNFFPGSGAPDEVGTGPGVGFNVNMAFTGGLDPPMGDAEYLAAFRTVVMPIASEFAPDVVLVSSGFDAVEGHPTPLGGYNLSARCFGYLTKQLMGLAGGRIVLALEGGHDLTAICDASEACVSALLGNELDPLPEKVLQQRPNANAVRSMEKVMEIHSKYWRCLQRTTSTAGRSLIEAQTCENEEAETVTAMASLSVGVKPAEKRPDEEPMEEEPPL
Method: as §1, §2
Human HDAC4 (GenBank Accession No. NM_006037), amino acids 627-1085 with N-terminal GST tag, MW=75.2 kDa, expressed in baculovirus expression system.
as §3, §4
HDAC4: 0.004 ng/ul HDAC4 and 50 μM Class IIa HDAC substrate are in the reaction buffer with 1% DMSO final. Incubate for 30 minutes at room temperature.
as §5, §6

Human HDAC9 = biological target: T3, Human HDAC9 (Homo sapiens, UniProt Q9UKV0); assay: HDAC9 biochemical assay, class IIa-specific substrate; conditions: read-out: HDAC Isoform IC50 (nM) 9
T3 construct: amino acids 604-1066 with C-terminal His tag; His (C); host or cells: baculovirus expression system
T3 sequence (Q9UKV0 604-1066 isoform Q9UKV0-5): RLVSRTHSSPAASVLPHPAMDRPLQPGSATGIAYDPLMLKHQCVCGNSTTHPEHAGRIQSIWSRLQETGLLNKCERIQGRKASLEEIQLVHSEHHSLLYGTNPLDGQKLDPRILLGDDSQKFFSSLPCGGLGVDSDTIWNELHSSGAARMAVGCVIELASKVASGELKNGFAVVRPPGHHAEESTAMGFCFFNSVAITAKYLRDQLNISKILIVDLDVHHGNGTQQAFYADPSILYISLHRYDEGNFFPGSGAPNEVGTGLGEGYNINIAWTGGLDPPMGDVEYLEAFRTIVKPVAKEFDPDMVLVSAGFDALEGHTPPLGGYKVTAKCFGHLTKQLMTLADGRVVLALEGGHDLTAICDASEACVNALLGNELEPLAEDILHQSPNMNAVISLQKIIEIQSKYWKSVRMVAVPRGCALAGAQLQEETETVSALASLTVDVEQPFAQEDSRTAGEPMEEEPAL
Method: as §1, §2
Human HDAC9 (GenBank Accession No. NM_178423), amino acids 604-1066 with C-terminal His tag, MW=50.7 kDa, expressed in baculovirus expression system.
as §3, §4
HDAC9: 0.06 ng/ul HDAC9 and 50 μM Class IIa HDAC substrate are in the reaction buffer with 1% DMSO final. Incubate for 30 minutes at room temperature.
as §5, §6

Recombinant human HDAC6 = biological target: T4, Recombinant human HDAC6 (Homo sapiens, UniProt Q9UBN7); assay: HDAC6 biochemical assay, AMC-labeled peptide substrate; conditions: HDAC6; read-out: HDAC Isoform IC50 (nM) 6
T4 construct: full length, MW=159 kDa; GST (N); host or cells: Sf9 insect cells (baculovirus)
T4 sequence (Q9UBN7 1-1215): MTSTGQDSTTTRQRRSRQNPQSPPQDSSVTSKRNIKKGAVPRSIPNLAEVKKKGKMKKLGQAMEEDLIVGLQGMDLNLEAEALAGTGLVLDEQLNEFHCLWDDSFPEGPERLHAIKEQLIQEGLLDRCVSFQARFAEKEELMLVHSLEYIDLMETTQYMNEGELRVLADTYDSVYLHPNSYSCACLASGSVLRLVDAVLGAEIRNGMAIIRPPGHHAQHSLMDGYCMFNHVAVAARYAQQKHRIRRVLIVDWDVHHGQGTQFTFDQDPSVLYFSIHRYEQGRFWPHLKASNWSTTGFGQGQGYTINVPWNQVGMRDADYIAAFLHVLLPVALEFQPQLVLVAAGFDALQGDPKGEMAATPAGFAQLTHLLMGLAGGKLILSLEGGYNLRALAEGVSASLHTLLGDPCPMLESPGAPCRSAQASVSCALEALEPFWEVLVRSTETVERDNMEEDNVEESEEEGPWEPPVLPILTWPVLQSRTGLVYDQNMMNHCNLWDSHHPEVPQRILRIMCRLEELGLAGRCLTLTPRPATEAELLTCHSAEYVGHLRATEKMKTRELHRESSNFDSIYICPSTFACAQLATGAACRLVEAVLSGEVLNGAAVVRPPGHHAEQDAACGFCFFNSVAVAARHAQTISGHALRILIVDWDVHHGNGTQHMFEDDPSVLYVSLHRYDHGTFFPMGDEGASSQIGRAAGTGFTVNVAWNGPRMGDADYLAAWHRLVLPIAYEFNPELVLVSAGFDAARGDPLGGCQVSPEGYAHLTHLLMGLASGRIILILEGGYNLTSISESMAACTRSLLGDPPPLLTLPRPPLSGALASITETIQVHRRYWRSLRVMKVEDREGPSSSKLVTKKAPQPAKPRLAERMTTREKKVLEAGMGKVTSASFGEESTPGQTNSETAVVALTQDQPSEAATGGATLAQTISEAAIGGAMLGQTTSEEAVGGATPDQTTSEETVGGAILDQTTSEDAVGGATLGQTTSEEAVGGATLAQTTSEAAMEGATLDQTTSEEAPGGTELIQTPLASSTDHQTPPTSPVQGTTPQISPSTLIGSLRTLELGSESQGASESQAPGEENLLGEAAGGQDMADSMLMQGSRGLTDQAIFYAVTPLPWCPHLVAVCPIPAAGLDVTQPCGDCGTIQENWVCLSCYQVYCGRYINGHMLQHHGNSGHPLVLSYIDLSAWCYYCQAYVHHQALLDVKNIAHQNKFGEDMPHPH
Method: as §1, §2
Recombinant human HDAC6 (GenBank Accession No. BC069243), full length, MW=159 kDa, was expressed by baculovirus in Sf9 insect cells using an N-terminal GST tag.
as §3
HDAC6: 0.3 ng/ul HDAC6 and 50 μM HDAC substrate are in the reaction buffer with 1% DMSO final. Incubate for 1 hours at 30° C.
as §5, §6

Human HDAC7 = biological target: T5, Human HDAC7 (Homo sapiens, UniProt Q8WUI4); assay: HDAC7 biochemical assay, class IIa-specific substrate; conditions: read-out: HDAC Isoform IC50 (nM) 7
T5 construct: (a.a. 518-end) with N-terminal GST tag; GST (N); host or cells: baculovirus expression system
T5 sequence (Q8WUI4 518-952 limits assumed): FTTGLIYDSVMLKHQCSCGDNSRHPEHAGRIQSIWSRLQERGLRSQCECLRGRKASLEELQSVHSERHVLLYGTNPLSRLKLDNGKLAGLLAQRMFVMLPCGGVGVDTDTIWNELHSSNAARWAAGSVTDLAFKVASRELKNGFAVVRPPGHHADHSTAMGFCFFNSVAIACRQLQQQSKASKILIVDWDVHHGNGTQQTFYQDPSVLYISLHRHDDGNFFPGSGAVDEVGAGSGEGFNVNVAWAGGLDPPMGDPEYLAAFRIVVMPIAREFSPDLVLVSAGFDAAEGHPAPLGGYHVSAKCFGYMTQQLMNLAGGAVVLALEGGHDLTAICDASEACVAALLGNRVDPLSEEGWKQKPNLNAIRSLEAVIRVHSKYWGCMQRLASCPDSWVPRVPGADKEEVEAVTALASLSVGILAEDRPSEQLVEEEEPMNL
Method: as §1, §2
Human HDAC7 (GenBank Accession No. AY302468), (a.a. 518-end) with N-terminal GST tag, MW=78 kDa, expressed in baculovirus expression system.
as §3, §4
HDAC7: 0.001 ng/ul HDAC7 and 50 μM Class IIa HDAC substrate are in the reaction buffer with 1% DMSO final. Incubate for 30 minutes at room temperature.
as §5, §6

Human HDAC1 = biological target: T6, Human HDAC1 (Homo sapiens, UniProt Q13547); assay: HDAC1 biochemical assay, AMC-labeled peptide substrate; conditions: read-out: HDAC Isoform IC50 (nM) 1
T6 construct: full length with C-terminal His-tag and C-terminal FLAG-tag; His (C); FLAG (C); host or cells: baculovirus expression system
T6 sequence (Q13547 whole entry, canonical isoform): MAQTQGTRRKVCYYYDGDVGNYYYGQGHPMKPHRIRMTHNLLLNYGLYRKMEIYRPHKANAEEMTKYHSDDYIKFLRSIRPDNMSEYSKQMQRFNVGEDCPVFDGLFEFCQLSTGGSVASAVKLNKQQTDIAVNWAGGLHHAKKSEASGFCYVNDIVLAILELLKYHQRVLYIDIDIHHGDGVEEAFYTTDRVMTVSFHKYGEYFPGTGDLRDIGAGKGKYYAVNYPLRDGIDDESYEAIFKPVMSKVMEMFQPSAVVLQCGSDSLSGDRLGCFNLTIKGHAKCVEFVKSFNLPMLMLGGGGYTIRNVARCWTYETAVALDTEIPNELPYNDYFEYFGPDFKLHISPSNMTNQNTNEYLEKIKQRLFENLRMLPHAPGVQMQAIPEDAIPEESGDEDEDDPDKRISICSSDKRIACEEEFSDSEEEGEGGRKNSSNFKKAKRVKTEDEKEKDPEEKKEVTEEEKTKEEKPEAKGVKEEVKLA
Method: as §1, §2
Human HDAC1 (GenBank Accession No. NM_004964), full length with C-terminal His-tag and C-terminal FLAG-tag, MW=56 kDa, expressed in baculovirus expression system.
as §3
HDAC1: 0.3 ng/ul HDAC1 and 50 μM HDAC substrate are in the reaction buffer with 1% DMSO final. Incubate for 1 hour at 30° C.
as §5, §6

| SMILES | IC50 (Human HDAC5) [nM] | IC50 (Human HDAC4) [nM] | IC50 (Human HDAC9) [nM] | IC50 (Recombinant human HDAC6) [nM] | IC50 (Human HDAC7) [nM] | IC50 (Human HDAC1) [nM] |
| --- | --- | --- | --- | --- | --- | --- |
| FC(F)(F)c1nc(-c2ccc(CN(c3cnccn3)c3ccc4nncn4n3)s2)no1 [Example DU, N-{[1,2,4]Triazolo[4,3-b]pyridazin-6-yl}-N-({5-[5-(trifluoromethyl)-1,2,4-oxadiazol-3-yl]thiophen-2-yl}methyl)pyrazin-2-amine] | ≤ 10000 | ≤ 10000 | ≤ 10000 | ≤ 10000 | ≤ 1000 | > 10000 |
| Cc1ccc(N(Cc2ccc(-c3noc(C(F)(F)F)n3)s2)c2cnccn2)nn1 [Example DF, 6-Methyl-N-(pyrazin-2-yl)-N-({5-[5-(trifluoromethyl)-1,2,4-oxadiazol-3-yl]thiophen-2-yl}methyl)pyridazin-3-amine] | ≤ 10000 | ≤ 10000 | ≤ 10000 | ≤ 10000 | ≤ 10000 | > 10000 |
| FC(F)(F)c1nc(-c2ccc(CN(c3cnccn3)c3cscn3)s2)no1 [Example T, N-(1,3-Thiazol-4-yl)-N-({5-[5-(trifluoromethyl)-1,2,4-oxadiazol-3-yl]thiophen-2-yl}methyl)pyrazin-2-amine] | ≤ 1000 | ≤ 1000 | ≤ 10000 | ≤ 10000 | ≤ 10000 | ≤ 10000 |
| CN(C)c1cc(N(Cc2ccc(-c3noc(C(F)(F)F)n3)s2)c2cnccn2)ncn1 [Example CI, N4,N4-Dimethyl-N6-(pyrazin-2-yl)-N6-({5-[5-(trifluoromethyl)-1,2,4-oxadiazol-3-yl]thiophen-2-yl}methyl)pyrimidine-4,6-diamine] | ≤ 10000 | ≤ 10000 | ≤ 10000 | ≤ 10000 | ≤ 10000 | ≤ 10000 |
| COc1cnc(N(Cc2ccc(-c3noc(C(F)(F)F)n3)s2)c2cc(C(F)(F)F)cnn2)cn1 [Example EP, N-(5-Methoxypyrazin-2-yl)-5-(trifluoromethyl)-N-({5-[5-(trifluoromethyl)-1,2,4-oxadiazol-3-yl]thiophen-2-yl}methyl)pyridazin-3-amine] | ≤ 10000 | ≤ 10000 | > 10000 | ≤ 10000 | ≤ 10000 | > 10000 |
